Test results as given in patent publication US20140073801A1, “PYRROLIDINE DERIVATIVES AS SELECTIVE GLYCOSIDASE INHIBITORS AND USES THEREOF” (Summit Corporation Plc, priority 2011, published 2014).

Columns and labels:
Format in all cases: biochemical
[1] = tested on: human β-hexosaminidase [human placenta] (HexA/B); test: Determination of IC50 values for inhibition of human β-hexosaminidase; details: ratio
Procedure: (§1) Inhibitors identified from the screen described in Example 1 were evaluated for IC50 against human β-hexosaminidase [human placenta, Sigma-Aldrich] using a range of inhibitor concentrations from 300 μM to 0.003 μM or 100 μM to 0.001 μM and the following reaction conditions:
(§2) Reactions were carried out at room temperature for thirty minutes and then quenched through the addition of 150 μl 0.5M Na2CO3. Fluorescence readings were taken at excitation wavelength 360 nm and emission wavelength 450 nm. IC50 values were calculated using XLFit 4. The selectivity ratio for inhibition of human O-GlcNAcase over human β-hexosaminidase is defined here as:
(§3) IC50(human β-hexosaminidase)/IC50(Human OGA)

[2] = molecular target: T1, human β-hexosaminidase [human placenta] (HexA/B); test: as above; details: human β-hexosaminidase, human placenta; room temperature, thirty minutes
T1 construct: other: human β-hexosaminidase, human placenta; room temperature, thirty minutes
Procedure: as §1, §2, §3

[3] = molecular target: T2, human OGA (Homo sapiens, UniProt O60502); test: Determination of IC50 values for inhibition of human OGA
T2 construct: made in house
T2 sequence (O60502 1-916): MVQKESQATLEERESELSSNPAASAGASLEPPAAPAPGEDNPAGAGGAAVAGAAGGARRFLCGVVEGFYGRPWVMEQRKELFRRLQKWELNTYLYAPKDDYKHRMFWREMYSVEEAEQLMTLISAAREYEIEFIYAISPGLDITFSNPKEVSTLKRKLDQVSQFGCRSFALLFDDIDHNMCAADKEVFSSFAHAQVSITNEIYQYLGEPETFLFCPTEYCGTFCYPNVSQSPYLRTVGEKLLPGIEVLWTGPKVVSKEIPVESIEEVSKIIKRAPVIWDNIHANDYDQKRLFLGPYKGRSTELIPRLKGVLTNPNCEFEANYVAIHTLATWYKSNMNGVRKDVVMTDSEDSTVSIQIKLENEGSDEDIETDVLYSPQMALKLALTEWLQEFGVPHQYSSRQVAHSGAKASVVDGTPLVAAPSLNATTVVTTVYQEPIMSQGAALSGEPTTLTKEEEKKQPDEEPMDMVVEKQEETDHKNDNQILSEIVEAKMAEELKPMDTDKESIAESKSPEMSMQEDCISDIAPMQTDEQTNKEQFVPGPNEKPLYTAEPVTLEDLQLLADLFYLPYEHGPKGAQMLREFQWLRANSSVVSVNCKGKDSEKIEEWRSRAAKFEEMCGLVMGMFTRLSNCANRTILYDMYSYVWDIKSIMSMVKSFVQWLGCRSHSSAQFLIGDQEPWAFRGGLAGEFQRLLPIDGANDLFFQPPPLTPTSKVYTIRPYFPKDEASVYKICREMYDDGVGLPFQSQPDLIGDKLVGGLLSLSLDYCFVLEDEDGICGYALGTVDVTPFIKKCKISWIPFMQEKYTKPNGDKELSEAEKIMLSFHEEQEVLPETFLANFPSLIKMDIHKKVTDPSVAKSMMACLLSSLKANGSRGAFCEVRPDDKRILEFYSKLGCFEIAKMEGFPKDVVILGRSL
Procedure: Inhibitors identified from the screen described in Example 1 were evaluated for IC50 using a procedure adapted from Biochem. J. 2009, 420, 221-227. IC50 determination was carried out using a range of inhibitor concentrations from 300 μM to 0.003 μM or 100 μM to 0.001 μM. IC50 values were calculated using XLFit 4.

Row | SMILES | Selectivity: IC50(human β-hexosaminidase)/IC50(Human OGA) [1] | IC50 [2] [µM] | IC50 [3] [µM]
1 | CNC(=O)C[C@H]1[C@@H](O)[C@H](O)[C@H](CO)N1CCCc1ccccc1 [Compound A057, 2-((2S,3R,4R,5S)-3,4-dihydroxy-5-(hydroxymethyl)-1-(3-phenylpropyl)pyrrolidin-2-yl)-N-methylacetamide] | 0.11 | 4.26 | 39.2
2 | CCNC(=O)C[C@@H]1N[C@H](CO)[C@@H](O)[C@@H]1O [Compound A051, 2-((2S,3R,4R,5R)-3,4-dihydroxy-5-(hydroxymethyl)pyrrolidin-2-yl)-N-ethylacetamide] | >10.43 | > 300 | 28.8
3 | CNC(=O)C[C@@H]1[C@H](O)[C@H](O)[C@@H](CO)N1CCCCCCCCCO [Compound A009, 2-((2R,3S,4R,5R)-3,4-dihydroxy-5-(hydroxymethyl)-1-(9-hydroxynonyl)pyrrolidin-2-yl)-N-methylacetamide] | 5472 | 197 | 0.036
4 | CCCCN1[C@H](CC(=O)NC)[C@H](O)[C@H](O)[C@H]1CO [Compound A017, 2-((2R,3S,4R,5R)-1-butyl-3,4-dihydroxy-5-(hydroxymethyl)pyrrolidin-2-yl)-N-methylacetamide] | 3500 | 196 | 0.056
5 | CNC(=O)C[C@@H]1[C@H](O)[C@H](O)[C@@H](CO)N1CCCCCNS(=O)(=O)c1ccc(Oc2ccccc2)cc1 [Compound A067, 2-((2R,3S,4R,5R)-3,4-dihydroxy-5-(hydroxymethyl)-1-(5-(4-phenoxyphenylsulfonamido)pentyl)pyrrolidin-2-yl)-N-methylacetamide] | >5000 | 15 | < 0.003
6 | CNC(=O)C[C@@H]1[C@H](O)[C@H](O)[C@@H](CO)N1CCCNC(=O)OC(C)(C)C [Compound A065, tert-butyl (3-((2R,3R,4S,5R)-3,4-dihydroxy-2-(hydroxymethyl)-5-(2-(methylamino)-2-oxoethyl)pyrrolidin-1-yl)propyl)carbamate] | 8342 | 58.4 | 0.007
7 | CCCCCCN1[C@H](CC(=O)NC)[C@H](O)[C@H](O)[C@@H]1CO [Compound A036, 2-((2R,3S,4R,5S)-1-hexyl-3,4-dihydroxy-5-(hydroxymethyl)pyrrolidin-2-yl)-N-methylacetamide] | 0.54 | 73 | 136
8 | CC(C)NC(=O)C[C@H]1N[C@H](CO)[C@@H](O)[C@H]1O [Compound A013, 2-((2R,3S,4R,5R)-3,4-dihydroxy-5-(hydroxymethyl)pyrrolidin-2-yl)-N-isopropylacetamide] | >2 | > 300 | 130
9 | CCCCCCN1[C@H](CC(=O)NCCC)[C@H](O)[C@H](O)[C@H]1CO [Compound A023, 2-((2R,3S,4R,5R)-1-hexyl-3,4-dihydroxy-5-(hydroxymethyl)pyrrolidin-2-yl)-N-propylacetamide] | >6211 | > 300 | 0.048
10 | CNC(=O)[C@H]1N[C@H](CO)[C@@H](O)[C@@H]1O [Compound A059, (2S,3R,4R,5R)-3,4-dihydroxy-5-(hydroxymethyl)-N-methylpyrrolidine-2-carboxamide] | 4.27 | 0.0299 | 0.007
11 | O=C(C[C@H]1N[C@H](CO)[C@@H](O)[C@H]1O)NC1CC1 [Compound A048, N-cyclopropyl-2-((2R,3S,4R,5R)-3,4-dihydroxy-5-(hydroxymethyl)pyrrolidin-2-yl)acetamide] | >12.6 | > 300 | 23.8
12 | CCCCCCN1[C@H](CC(=O)NC2CC2)[C@H](O)[C@H](O)[C@H]1CO [Compound A049, N-cyclopropyl-2-((2R,3S,4R,5R)-1-hexyl-3,4-dihydroxy-5-(hydroxymethyl)pyrrolidin-2-yl)acetamide] | >283 | > 300 | 1.06
13 | CCCCCCN1[C@H](CC(=O)NC)[C@H](O)[C@@H](O)[C@@H]1CO [Compound A032, 2-((2R,3S,4S,5S)-1-hexyl-3,4-dihydroxy-5-(hydroxymethyl)pyrrolidin-2-yl)-N-methylacetamide] | >49.4 | > 300 | 6.07
14 | CC(C)CNC(=O)C[C@H]1N[C@H](CO)[C@@H](O)[C@H]1O [Compound A025, 2-((2R,3S,4R,5R)-3,4-dihydroxy-5-(hydroxymethyl)pyrrolidin-2-yl)-N-isobutylacetamide] | >2.3 | > 300 | 129
15 | CCNC(=O)C[C@@H]1[C@@H](O)[C@H](O)[C@@H](CO)N1CCOc1ccc(Cl)cc1Cl [Compound A062, 2-((2R,3R,4R,5R)-1-(2-(2,4-dichlorophenoxy)ethyl)-3,4-dihydroxy-5-(hydroxymethyl)pyrrolidin-2-yl)-N-ethylacetamide] | >585 | > 300 | 0.512
16 | CNC(=O)C[C@@H]1N[C@H](CO)[C@@H](O)[C@@H]1O [Compound A045, 2-((2S,3R,4R,5R)-3,4-dihydroxy-5-(hydroxymethyl)pyrrolidin-2-yl)-N-methylacetamide] | 4.71 | 2.76 | 0.586
17 | CCCCCCN1[C@H](CO)[C@@H](O)[C@H](O)[C@H]1CC(=O)NC [Compound A046, 2-((2R,3R,4R,5R)-1-hexyl-3,4-dihydroxy-5-(hydroxymethyl)pyrrolidin-2-yl)-N-methylacetamide] | 0.42 | 0.0099 | 0.0237
18 | CCCCCCN1[C@H](CC(=O)NCCO)[C@H](O)[C@H](O)[C@H]1CO [Compound A028, 2-((2R,3S,4R,5R)-1-hexyl-3,4-dihydroxy-5-(hydroxymethyl)pyrrolidin-2-yl)-N-(2-hydroxyethyl)acetamide] | >1.39 | ≥ 300 | 215
19 | CCNC(=O)C[C@@H]1[C@@H](O)[C@H](O)[C@@H](CO)N1CCCc1ccc(S(=O)(=O)NCC)cc1 [Compound A070, N-ethyl-2-((2R,3R,4R,5R)-1-(3-(4-(N-ethylsulfamoyl)phenyl)propyl)-3,4-dihydroxy-5-(hydroxymethyl)pyrrolidin-2-yl)acetamide] | 22133 | 166 | 0.0075
20 | CCNC(=O)C[C@@H]1[C@@H](O)[C@H](O)[C@@H](CO)N1C(=O)CCc1ccccc1 [Compound A069, 2-((2R,3R,4R,5R)-3,4-dihydroxy-5-(hydroxymethyl)-1-(3-phenylpropanoyl)pyrrolidin-2-yl)-N-ethylacetamide] | >1.34 | > 300 | 224
21 | CCCCCCCCCN1[C@H](CC(=O)NC)[C@H](O)[C@H](O)[C@H]1CO [Compound A011, 2-((2R,3S,4R,5R)-3,4-dihydroxy-5-(hydroxymethyl)-1-nonylpyrrolidin-2-yl)-N-methylacetamide] | >9174 | > 300 | 0.033
22 | CCNC(=O)C[C@@H]1[C@@H](O)[C@H](O)[C@@H](CO)N1CCCc1ccccc1 [Compound A061, 2-((2R,3R,4R,5R)-3,4-dihydroxy-5-(hydroxymethyl)-1-(3-phenylpropyl)pyrrolidin-2-yl)-N-ethylacetamide] | >4329 | > 300 | 0.0693
23 | CNC(=O)C[C@@H]1[C@@H](O)[C@H](O)[C@H](CO)N1CCCc1ccccc1 [Compound A058, 2-((2R,3R,4R,5S)-3,4-dihydroxy-5-(hydroxymethyl)-1-(3-phenylpropyl)pyrrolidin-2-yl)-N-methylacetamide] | 0.14 | 0.031 | 0.228
